Assay results published in US20070232577A1, “Synthetic pentacyclic triterpenoids and derivatives of betulinic acid and betulin” (Advanced Life Sciences, Inc., priority 2006, published 2007).
≈ marks a conversion by molar mass, not a printed value.

Experiments:
[1] = test system: LN-229 (glioblastoma); experiment: MTS cell viability assay, LN-229; format: cell-based; conditions: Homo sapiens, 72 h
Procedure: (§1) All treatments were performed in triplicate. […] Cells were incubated at 37° C. for 72 h.

[2] = test system: SK-MEL-2, A-375, Daoy, LN-229, OVCAR-3, HT-29, MCF-7 cell lines; format: cell-based
Procedure: as §1

[3] = test system: Daoy (glioblastoma); experiment: MTS cell viability assay, Daoy; conditions: Homo sapiens, Daoy, 72 h, read-out: IC50 Daoy
Procedure: (§2) Cells were plated, the evening before treatment, for each treatment on 96-well plates (1×10^4 cells/well) in 100 μL volume per well. Drug solutions were prepared by diluting each test compound in DSMO (10 mM) with the appropriate cell growth media for each individual cell line, or in “Universal Media” if several cell lines were to be assayed in parallel, immediately prior to cell treatment. Universal Media consisted of 5 mL sodium pyruvate (100×liquid stock, CellGro), 5 mL glucose (100×, 45% liquid stock, CellGro), 5 mL Penicillin/Streptomycin (100×liquid stock, CellGro), 10 mL sodium bicarbonate (50×liquid stock, CellGro), 25 mL Fetal Calf Serum, 1.25 mL insulin (4 mg/mL, Gibco) and 449 mL RPMI media with 2 mM glutamine for a total volume of 500 mL. Cells were treated by aspirating media from each well and adding 80 μL of each drug solution to the attached cells. All treatments were performed in triplicate. Growth media (80 μL) were added to 3 blank wells (no cells) to measure background from the growth media Growth media alone (no DMSO or test compond) was added to 2 wells containing cells to measure the baseline MTS activity and vehicle (DMSO) control solutions were also included to monitor basal toxicity from DMSO. Cells were incubated at 37° C. for 72 h. MTS reagent (per 96-well plate) were prepared by combining 2 mL of MTS working solution (Cell Titer AQueous Non-Radioactive Cell Proliferation Assay, Promega, cat#G1112), 100 μL of 0.92 mg/mL phenazine methosulfate/Dulbecco's PBS and 2.1 mL growth media. MTS reagent (40 μL) were added to each well and incubated at 37° C. for 1.5 to 4 h. Plates were gently shaken by hand until solution in each well appeared homogenous. Absorbances at 490 nm were measured on a plate reader at multiple time points following the addition of MTS reagent for each plate. Triplicate absorbance (490 nm) measurements were averaged following background (no cell) subtraction for each drug concentration. Percent Cell Viability was calculated for each drug concentration using the following equation: {[Absorbances(drug treated)]/[Absorbances(DMSO treated)]}×100%
(§3) Percent viability (y-axis) was plotted against drug concentration (x-axis) and the resulting graph was used to determine the 50% inhibitory concentration (IC50) for each drug.

[4] = test system: OVCAR-3 (ovarian carcinoma); experiment: MTS cell viability assay, OVCAR-3; format: cell-based; conditions: Homo sapiens, 72 h
Procedure: as §1

[5] = test system: SK-MEL-2 cells; experiment: Caspase activation assay, SK-MEL-2; format: cell-based; conditions: for caspase activating property compared with betulinic acid (1): SK-MEL-2, 5, 15, 50 μM, 2-24 h, absence of FBS
Procedure: All treatments were performed in duplicate. […] Cells were incubated at 37° C. for 8 h. Caspase assay reagent (per 96-well plate) was prepared according to manufacturer's instructions (Homogeneous Caspases Assay, fluorometric, Roche) by combining 6.3 mL Incubation Buffer with 0.7 mL of Substrate Stock Solution. Caspase assay reagent (70 μL) was added to each well; the plate was gently shaken by hand for 15-20 seconds and incubated at 37° C. for 4 h.
Fluorescent emission was measured at 535 nm on a plate reader using the “homogeneous caspase” program (excitation Wavelength=490 nm, emission wavelength=535 nm). Duplicate wells for each treatment were averaged following background (no cells) subtraction (emission 535 nm value from all experimental emission 535 nm values) for each drug concentration.
DMSO treatment represented baseline caspase activation in the absence of drug. The percent changes in caspase activity were plotted on the y-axis for each drug treatment.
Caspase activation assays were conducted to further characterize the mode of cell death. A treatment time and dose at which maximum caspase activation was observed prior to massive cell destruction would be indicative of apoptosis induction. SK-MEL-2 cells were treated with 5, 15, and 50 μM of the compound for 2, 4, 6, 8, 16, and 24 h in the absence of FBS (Fetal Bovine Serum).

[6] = test system: SK-MEL-2 (melanoma); experiment: MTS cell viability assay, SK-MEL-2; conditions: Homo sapiens, SK-MEL-2, 72 h, read-out: IC50 SK-MEL-2
Procedure: as §2, §3

[7] = test system: SK-MEL-2; experiment: Annexin-V assay (apoptosis versus necrosis); format: cell-based; conditions: for selective apoptosis and dose dependence (in words): cell line not stated, above optimal dose cellular damage and non-apoptotic cell death
Procedure: Cells were plated (8.75×10^5 cells/6 cm. diameter tissue culture plates), the evening before treatment, in 4 mL volume per plate. This cell density is equivalent to the cell density used in the MTS and Caspase assays (1×10^4 cells/well (96-well plate). Drug solutions were prepared, immediately prior to cell treatment, in the same as described for caspase assay
Growth media alone (no DMSO or drug) was added to a plate containing cells to measure the baseline-Annexin-V reactivity and vehicle (DMSO) alone control solutions were also prepared to monitor Annexin-V reactivity from DMSO. Cells were incubated at 37° C. for 8 h. Growth media (3 mL) was removed from each plate and added to a 15 mL conical tube containing 0.333 mL FCS (final FCS concentration of 10%). The media was saved to include any apoptotic/dead cells that may have detached from the plate during drug treatment. FCS was added to the media to prevent further cell damage and improve the efficiency of cell pelleting during subsequent centrifugation steps (empirical observation). Adherent cells were rinsed once with PBS and 1 mL of trypsin was added. Plates were rotated several times to assure coating of the entire surface with trypsin which was then removed. Plates were incubated at 37° C. for 4-5 min. Trypsinized cells were re-suspended in the saved media for each sample. Cell suspension was placed back into 15 mL tubes, which were then cooled on ice. Cells were re-suspended by pipetting 7-8 times. The tubes were centrifuged at 130×g for 5 min at 4° C. The resulting cell pellets were re-suspended in the ice cold 1 mL of 1× Nexin Buffer (Guava Nexin kit, Guava Technologies) and transferred to 1.5 mL conical microcentrifuge tubes to rinse cells with residual growth media. This procedure was repeated by centrifugation of cells at 130×g for 5 min, at 4° C. Re-suspension of the resulting cell pellet in 50 μL Nexin Staining Solution (Guava Nexin kit, Guava Technologies) was followed by incubation on ice, in the dark, for 20 min. Guava Samples were analyzed immediately on the Guava flow cytometer, using the Guava Nexin software package (see Guava user's manual and Guava Nexin kit protocol on data acquisition and analysis protocols).

[8] = test system: A-375 (melanoma); experiment: MTS cell viability assay, A-375; format: cell-based; conditions: Homo sapiens, 72 h
Procedure: as §1

[9] = test system: HT-29 (colon carcinoma); experiment: MTS cell viability assay, HT-29; format: cell-based; conditions: Homo sapiens, 72 h
Procedure: as §1

[10] = test system: MCF-7 (breast carcinoma); experiment: MTS cell viability assay, MCF-7; format: cell-based; conditions: Homo sapiens, MCF7, 72 h
Procedure: as §1

Structure (SMILES)	IC50 [1] [µg/mL]	cytotoxic potency across the cell line panel (in words) [2]	IC50 [3] [µg/mL]	IC50 [4] [µg/mL]	caspase activation in SK-MEL-2 (in words) ([5]; SK-MEL-2)	caspase activating property compared with betulinic acid (1) [5]	IC50 [6] [µg/mL]	apoptosis versus necrosis by the Annexin assay (in words) ([7]; SK-MEL-2)	rank as apoptosis inducer within the collection (in words) ([7]; caspase and Annexin assays, SK-MEL-2)	IC50 [8] [µg/mL]	IC50 [9] [µg/mL]	selective apoptosis and dose dependence (in words) [7]	IC50 [10] [µg/mL]
C=C(C)[C@@H]1CC[C@]2(CO)CC[C@]3(C)[C@H](CC[C@@H]4[C@@]5(C)C=C(C#N)C(=O)C(C)(C)[C@@H]5CC[C@]43C)[C@@H]12 [Compound 38, (1R,3aS,5aR,5bR,7aR,11aR,11bR,13aR,13bR)-3a-(hydroxymethyl)-5a,5b,8,8,11a-pentamethyl-9-oxo-1-(prop-1-en-2-yl)-2,3,3a,4,5,5a,5b,6,7,7a, 8,9,11a,11b,12,13,13a,13b-octadecahydro-1H-cyclopenta[a]chrysene-10-carbonitrile]	6 (≈ 12.9 µM)	potent across the entire cell line panel	8 (≈ 17.3 µM)	7 (≈ 15.1 µM)	activated caspases	more robust caspase activating property than betulinic acid	6 (≈ 12.9 µM)	inducing apoptosis over necrosis robustly	most potent apoptosis inducer	6 (≈ 12.9 µM)	8 (≈ 17.3 µM)	–	–
C=C(C)[C@@H]1CC[C@]2(CO)CC[C@]3(C)[C@H](CC[C@@H]4[C@@]5(C)CCC(NCCc6ccc(O)cc6)C(C)(C)[C@@H]5CC[C@]43C)[C@@H]12 (stereo partly drawn) [Compound 75, 4-(2-((1R,3aS,5aR,5bR,7aR,11aR,11bR,13aR,13bR)-3a-(hydroxymethyl)-5a,5b,8,8,11a-pentamethyl-1-(prop-1-en-2-yl)icosahydro-1H-cyclopenta[a]chrysen-9-ylamino)ethyl)phenol]	–	–	–	–	–	more robust caspase activating property than betulinic acid	–	–	–	–	–	induced selective apoptosis at an optimal dose	–
C=C(C)[C@@H]1CC[C@]2(C(=O)O)CC[C@]3(C)[C@H](CC[C@@H]4[C@@]5(C)CCC(NCCNC(=O)OC(C)(C)C)C(C)(C)[C@@H]5CC[C@]43C)[C@@H]12 (stereo partly drawn) [Compound 79, (1R,3aS,5aR,5bR,7aR,11aR,11bR,13aR,13bR)-9-(2-(tert-butoxycarbonylamino)ethylamino)-5a,5b,8,8,11a-pentamethyl-1-(prop-1-en-2-yl)icosahydro-1H-cyclopenta[a]chrysene-3a-carboxylic acid]	–	–	–	–	–	–	–	–	–	–	–	induced selective apoptosis at an optimal dose	–
C=C(C)[C@@H]1CC[C@]2(C(=O)O)CC[C@]3(C)[C@H](CC[C@@H]4[C@@]5(C)CC[C@H](NCCc6ccc(O)cc6)C(C)(C)[C@@H]5CC[C@]43C)[C@@H]12 [Compound 82, (1R,3aS,5aR,5bR,7aR,9S,11aR,11bR,13aR,13bR)-9-(4-hydroxyphenethylamino)-5a,5b,8,8,11a-pentamethyl-1-(prop-1-en-2-yl)icosahydro-1H-cyclopenta[a]chrysene-3a-carboxylic acid]	5 (≈ 8.68 µM)	potent across the entire cell line panel	5 (≈ 8.68 µM)	6 (≈ 10.4 µM)	–	–	5 (≈ 8.68 µM)	–	–	5 (≈ 8.68 µM)	4 (≈ 6.95 µM)	–	6 (≈ 10.4 µM)
CC(C)[C@@H]1CC[C@]2(C(=O)O)CC[C@]3(C)[C@H](CC[C@@H]4[C@@]5(C)CC[C@H](N)C(C)(C)[C@@H]5CC[C@]43C)[C@@H]12 [Compound 86, (1S,3aS,5aR,5bR,7aR,9S,11aR,11bR,13aR,13bR)-9-amino-1-isopropyl-5a,5b,8,8,11a-pentamethylicosahydro-1H-cyclopenta[a]chrysene-3a-carboxylic acid]	5 (≈ 10.9 µM)	potent across the entire cell line panel	6 (≈ 13.1 µM)	6 (≈ 13.1 µM)	–	–	6 (≈ 13.1 µM)	–	–	5 (≈ 10.9 µM)	5 (≈ 10.9 µM)	–	6 (≈ 13.1 µM)
